# Where a name gives a salt, the structure may show the parent alone. Read-outs that look alike come from different tables or passages of the source.
# Tests used:
# [1] = target: T1, SARS-CoV-2 PLpro (nsp3 1564–1878) (Severe acute respiratory syndrome coronavirus 2, UniProt P0DTD1); assay: biochemical; set-up: FRET-quenched peptide (Pro3) cleavage by PLpro, 10 min pre-incubation, slope over 20 min, normalised to no-compound control; conditions: low concentration screen, read-out: % of control remaining
# [2] = target: T1, SARS-CoV-2 PLpro (nsp3 1564–1878); assay: biochemical; set-up: FRET-quenched peptide (Pro3) cleavage by PLpro, 10 min pre-incubation, slope over 20 min, normalised to no-compound control; conditions: high concentration screen, read-out: % of control remaining
smiles,measurement,setting,value
CCN(CC)C(=O)c1ccc(O)c(OC)c1 [Vanillic acid diethylamide],remaining activity at 1.25 µM,[1]; Well no.=644,97.3%
same,remaining activity at 3.75 µM,[2]; Well no.=644,102%
COc1cc(C=O)ccc1O [Vanillin],remaining activity at 1.25 µM,[1]; Well no.=7455,103%
same,remaining activity at 3.75 µM,[2]; Well no.=7455,106%
CCCc1nc(C)c2c(O)nc(-c3cc(S(=O)(=O)N4CCN(CC)CC4)ccc3OCC)nn12 [Vardenafil HCl Trihydrate],remaining activity at 1.25 µM,[1]; Well no.=8292,101%
same,remaining activity at 3.75 µM,[2]; Well no.=8292,94.4%
CCCc1nc(C)c2c(=O)nc(-c3cc(S(=O)(=O)N4CCN(CC)CC4)ccc3OCC)[nH]n12 [Vardenafil],remaining activity at 1.25 µM,[1]; Well no.=1780,97.7%
same,remaining activity at 3.75 µM,[2]; Well no.=1780,97.8%
c1cnc2cc3c(cc2n1)[C@@H]1CNC[C@H]3C1 [Varenicline tartrate],remaining activity at 1.25 µM,[1]; Well no.=4855,98.1%
same,remaining activity at 3.75 µM,[2]; Well no.=4855,103%
CCc1c(C(=O)C(N)=O)c2c(OCC(=O)O)cccc2n1Cc1ccccc1 [Varespladib (LY315920)],remaining activity at 1.25 µM,[1]; Well no.=4663,105%
same,remaining activity at 3.75 µM,[2]; Well no.=4663,104%
COC(=O)c1ccc2c(C(=Nc3ccc(N(C)C(=O)CN4CCN(C)CC4)cc3)c3ccccc3)c(O)[nH]c2c1 [Vargatef],remaining activity at 1.25 µM,[1]; Well no.=2847,103%
same,remaining activity at 3.75 µM,[2]; Well no.=2847,104%
O[C@H]1CCN2Cc3ccccc3N=C12 [Vasicine],remaining activity at 1.25 µM,[1]; Well no.=3406,97.8%
same,remaining activity at 3.75 µM,[2]; Well no.=3406,94.4%
Clc1ccc(Nc2nnc(Cc3ccncc3)c3ccccc23)cc1 [Vatalanib],remaining activity at 1.25 µM,[1]; Well no.=1619,97%
same,remaining activity at 3.75 µM,[2]; Well no.=1619,95.2%
CC(=O)O[C@H]1C[C@@H]2CC[C@@H]3[C@H](CC[C@@]4(C)[C@H]3C[C@H]([N+]3(C)CCCCC3)[C@@H]4OC(C)=O)[C@@]2(C)C[C@@H]1N1CCCCC1 [Vecuronium],remaining activity at 1.25 µM,[1]; Well no.=2014,103%
same,remaining activity at 3.75 µM,[2]; Well no.=2014,103%
CC1(C)CCC(CN2CCN(c3ccc(C(=O)NS(=O)(=O)c4ccc(NCC5CCOCC5)c([N+](=O)[O-])c4)c(Oc4cnc5[nH]ccc5c4)c3)CC2)=C(c2ccc(Cl)cc2)C1 [Venetoclax],remaining activity at 1.25 µM,[1]; Well no.=6396,107%
same,remaining activity at 1.25 µM,[1]; Well no.=7400,91.2%
same,remaining activity at 3.75 µM,[2]; Well no.=6396,104%
same,remaining activity at 3.75 µM,[2]; Well no.=7400,94.7%
COc1ccc(C(CN(C)C)C2(O)CCCCC2)cc1 (stereo not shown) [Venlafaxine],remaining activity at 1.25 µM,[1]; Well no.=2044,100%
same,remaining activity at 3.75 µM,[2]; Well no.=2044,99.4%
C=CCN1CCCC1CNC(=O)c1cc(S(N)(=O)=O)cc(OC)c1OC (stereo not shown) [Veralipride],remaining activity at 1.25 µM,[1]; Well no.=7715,93.1%
same,remaining activity at 3.75 µM,[2]; Well no.=7715,97.9%
COc1ccc(CCN(C)CCCC(C#N)(c2ccc(OC)c(OC)c2)C(C)C)cc1OC (stereo not shown) [Verapamil],remaining activity at 1.25 µM,[1]; Well no.=1721,100%
same,remaining activity at 3.75 µM,[2]; Well no.=1721,100%
Cc1c([C@H](C)[C@@H]2NC[C@@H](C)C[C@H]2O)ccc2c1C[C@H]1[C@H]2CC=C2C[C@@H](O)CC[C@@]21C [Veratramine],remaining activity at 1.25 µM,[1]; Well no.=3280,102%
same,remaining activity at 3.75 µM,[2]; Well no.=3280,102%
COc1ccc(C(=O)O[C@H]2CC[C@@]3(C)[C@@H]4CC[C@H]5[C@]6(O)C[C@H](O)[C@@]7(O)[C@@H](CN8C[C@@H](C)CC[C@H]8[C@@]7(C)O)[C@]6(O)C[C@@]53O[C@]24O)cc1OC [Veratridine],remaining activity at 1.25 µM,[1]; Well no.=3222,99.9%
same,remaining activity at 3.75 µM,[2]; Well no.=3222,101%
CC(C)(C)c1ccc(S(=O)(=O)Nc2ccc(Cl)cc2C(=O)c2cc[n+]([O-])cc2)cc1 [Vercirnon],remaining activity at 1.25 µM,[1]; Well no.=8645,103%
same,remaining activity at 3.75 µM,[2]; Well no.=8645,103%
COc1ccc2c3c4n(c2c1)[C@H](C=C(C)C)OOC(C)(C)C[C@@H]4N1C(=O)[C@@H]2CCCN2C(=O)[C@]1(O)[C@H]3O [Verruculogen],remaining activity at 1.25 µM,[1]; Well no.=3556,98.3%
same,remaining activity at 3.75 µM,[2]; Well no.=3556,102%
CCCCOc1nc(N)c2c(n1)N(Cc1cccc(CN3CCCC3)c1)CC(=O)N2 [Vesatolimod],remaining activity at 1.25 µM,[1]; Well no.=8127,105%
same,remaining activity at 3.75 µM,[2]; Well no.=8127,102%
COC[C@@H](c1ccc(C(F)(F)F)cc1)N1CCN(C2(C)CCN(C(=O)c3c(C)ncnc3C)CC2)C[C@@H]1C [Vicriviroc (maleate)],remaining activity at 1.25 µM,[1]; Well no.=8655,106%
same,remaining activity at 3.75 µM,[2]; Well no.=8655,103%
Nc1ncnc2c1ncn2[C@@H]1O[C@H](CO)[C@@H](O)[C@@H]1O [Vidarabine],remaining activity at 1.25 µM,[1]; Well no.=2046,107%
same,remaining activity at 1.25 µM,[1]; Well no.=8006,93.6%
same,remaining activity at 3.75 µM,[2]; Well no.=2046,110%
same,remaining activity at 3.75 µM,[2]; Well no.=8006,95.5%
COc1cccc(-c2ccc(NC(=O)C3=C(C(=O)O)CCC3)c(F)c2)c1 [Vidofludimus],remaining activity at 1.25 µM,[1]; Well no.=8524,99.5%
same,remaining activity at 3.75 µM,[2]; Well no.=8524,96.6%
N#Cc1ccc2[nH]cc(CCCCN3CCN(c4ccc5oc(C(N)=O)cc5c4)CC3)c2c1 [Vilazodone (Hydrochloride)],remaining activity at 1.25 µM,[1]; Well no.=6286,105%
same,remaining activity at 3.75 µM,[2]; Well no.=6286,106%
N#Cc1ccc2[nH]cc(CCCCN3CCN(c4ccc5oc(C(N)=O)cc5c4)CC3)c2c1 [Vilazodone],remaining activity at 1.25 µM,[1]; Well no.=6477,90.6%
same,remaining activity at 3.75 µM,[2]; Well no.=6477,89.2%
N#C[C@@H]1CCCN1C(=O)CNC12CC3CC(CC(O)(C3)C1)C2 [Vildagliptin (LAF-237)],remaining activity at 1.25 µM,[1]; Well no.=4885,99.1%
same,remaining activity at 3.75 µM,[2]; Well no.=4885,99.9%
CC[C@]1(O)C[C@@H]2CN(CCc3c([nH]c4ccccc34)[C@@](C(=O)OC)(c3cc4c(cc3OC)N(C)[C@H]3[C@@](O)(C(=O)OC)[C@H](OC(C)=O)[C@]5(CC)C=CCN6CC[C@]43[C@@H]65)C2)C1 [Vinblastine sulfate salt],remaining activity at 1.25 µM,[1]; Well no.=1288,111%
same,remaining activity at 3.75 µM,[2]; Well no.=1288,108%
CC[C@]1(O)C[C@@H]2CN(CCc3c([nH]c4ccccc34)[C@@](C(=O)OC)(c3cc4c(cc3OC)N(C)[C@H]3[C@@](O)(C(=O)OC)[C@H](OC(C)=O)[C@]5(CC)C=CCN6CC[C@]43[C@@H]65)C2)C1 [Vinblastine sulfate],remaining activity at 1.25 µM,[1]; Well no.=3224,100%
same,remaining activity at 3.75 µM,[2]; Well no.=3224,97.9%
CC[C@]1(O)C[C@@H]2CN(CCc3c([nH]c4ccccc34)[C@@](C(=O)OC)(c3cc4c(cc3OC)N(C)[C@H]3[C@@](O)(C(=O)OC)[C@H](OC(C)=O)[C@]5(CC)C=CCN6CC[C@]43[C@@H]65)C2)C1 [Vinblastine],remaining activity at 1.25 µM,[1]; Well no.=2165,101%
same,remaining activity at 3.75 µM,[2]; Well no.=2165,103%
CC[C@]12CCCN3CCc4c(n(c5ccccc45)[C@@](O)(C(=O)OC)C1)[C@@H]32 [Vincamine],remaining activity at 1.25 µM,[1]; Well no.=3475,106%
same,remaining activity at 3.75 µM,[2]; Well no.=3475,102%
CC[C@]1(O)C[C@H]2CN(CCc3c([nH]c4ccccc34)[C@@](C(=O)OC)(c3cc4c(cc3OC)N(C=O)[C@H]3[C@@](O)(C(=O)OC)[C@H](OC(C)=O)[C@]5(CC)C=CCN6CC[C@]43[C@@H]65)C2)C1 [Vincristine sulfate],remaining activity at 1.25 µM,[1]; Well no.=1194,97.3%
same,remaining activity at 1.25 µM,[1]; Well no.=2035,104%
same,remaining activity at 1.25 µM,[1]; Well no.=3226,102%
same,remaining activity at 3.75 µM,[2]; Well no.=1194,97.6%
same,remaining activity at 3.75 µM,[2]; Well no.=3226,105%

# From publication PMC8286840, “Identifying SARS-CoV-2 antiviral compounds by screening for small molecule inhibitors of Nsp3 papain-like protease” (Biochemical Journal, 2021)
